Laboratory results taken from the supplement of paper PMC5908809.

Columns and labels:
[1] = tested on: normal NK cells expanded with K562-aAPC; assay: percent inhibition of viability; higher = more inhibition; conditions: 72 h, IL-2 2.5 ng/mL
Method: (§1)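 Drug sensitivity and resistance testing on K562-aAPC-expanded normal NK cells: 5 concentrations (10-fold steps over a 10,000-fold range), 72 h at 37 °C, viability by CellTiter-Glo normalised to DMSO and benzethonium chloride controls; DSS from the fitted curve.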

NKL (IL-2 2.5 ng/mL) [2] = assay: drug sensitivity score (DSS) (DSS units); higher = more sensitive; extreme values may be limits of the assay; conditions: 72 h
NK-YS (IL-2 2.5 ng/mL) [3] = assay: as above; conditions: 72 h
[4] = tested on: normal primary NK cells, pool 1 (3 donors) (IL-2 2.5 ng/mL); assay: as above; conditions: 72 h
DERL-7 (IL-2 2.5 ng/mL) [5] = assay: as above; conditions: 72 h
[6] = tested on: normal primary NK cells, pool 2 (3 donors) (IL-2 2.5 ng/mL); assay: as above; conditions: 72 h
[7] = tested on: normal primary NK cells, pool 3 (3 donors) (IL-2 2.5 ng/mL); assay: as above; conditions: 72 h
[8] = tested on: normal primary NK cells, pool 1 (3 donors), resting (IL-2 0 ng/mL); assay: as above; conditions: 72 h
KAI3 (IL-2 2.5 ng/mL) [9] = assay: as above; conditions: 72 h
YT (IL-2 2.5 ng/mL) [10] = assay: as above; conditions: 72 h
SNK-6 (IL-2 2.5 ng/mL) [11] = assay: as above; conditions: 72 h
KHYG-1 (IL-2 2.5 ng/mL) [12] = assay: as above; conditions: 72 h
NK-92 (IL-2 2.5 ng/mL) [13] = assay: as above; conditions: 72 h
IMC-1 (IL-2 20 ng/mL) [14] = assay: as above; conditions: 72 h
NKL (IL-2 2.5 ng/mL) [15] = assay: percent inhibition of viability; higher = more inhibition; conditions: 72 h
NK-YS (IL-2 2.5 ng/mL) [16] = assay: as above; conditions: 72 h
[17] = tested on: normal primary NK cells, pool 1 (3 donors) (IL-2 2.5 ng/mL); assay: as above; conditions: 72 h
DERL-7 (IL-2 2.5 ng/mL) [18] = assay: as above; conditions: 72 h
[19] = tested on: normal primary NK cells, pool 2 (3 donors) (IL-2 2.5 ng/mL); assay: as above; conditions: 72 h
[20] = tested on: normal primary NK cells, pool 3 (3 donors) (IL-2 2.5 ng/mL); assay: as above; conditions: 72 h
[21] = tested on: normal primary NK cells, pool 1 (3 donors), resting (IL-2 0 ng/mL); assay: as above; conditions: 72 h
KAI3 (IL-2 2.5 ng/mL) [22] = assay: as above; conditions: 72 h
YT (IL-2 2.5 ng/mL) [23] = assay: as above; conditions: 72 h
SNK-6 (IL-2 2.5 ng/mL) [24] = assay: as above; conditions: 72 h
KHYG-1 (IL-2 2.5 ng/mL) [25] = assay: as above; conditions: 72 h
NK-92 (IL-2 2.5 ng/mL) [26] = assay: as above; conditions: 72 h
IMC-1 (IL-2 20 ng/mL) [27] = assay: as above; conditions: 72 h
[28] = tested on: normal NK cells expanded with K562-aAPC; assay: drug sensitivity score (DSS) (DSS units); higher = more sensitive; extreme values may be limits of the assay; conditions: 72 h; IL-2 2.5 ng/mL
Method: as §1

CC1(COc2ccc3c(c2)ncn3-c2ccc3cccc(N4CCC(N)CC4)c3n2)COC1 [Crenolanib] (max concentration tested 10000 nM)
percent inhibition of viability [%]
Conditions | 1 nM | 10 nM | 100 nM | 1000 nM | 10000 nM
DERL-7 (IL-2 2.5 ng/mL) [18] | 9.4 | 0.68 | 2.82 | 50.6 | 101
IMC-1 (IL-2 20 ng/mL) [27] | -5.33 | 1.06 | 0.71 | 5.26 | 101
KAI3 (IL-2 2.5 ng/mL) [22] | -3.85 | -6.78 | -18.2 | 10.7 | 102
KHYG-1 (IL-2 2.5 ng/mL) [25] | 2.86 | -0.81 | 5.22 | 18.1 | 99.8
NK-92 (IL-2 2.5 ng/mL) [26] | -3.46 | -7.66 | 2.06 | 50.1 | 102
NK-YS (IL-2 2.5 ng/mL) [16] | -3.61 | -4.32 | -1.2 | 16.6 | 101
NKL (IL-2 2.5 ng/mL) [15] | 12.4 | 0.04 | 22.6 | 53 | 103
SNK-6 (IL-2 2.5 ng/mL) [24] | 21.7 | 16.3 | 25 | 54.8 | 101
YT (IL-2 2.5 ng/mL) [23] | 4.17 | 1.51 | 11.1 | 24.2 | 99.7
[1] | -3.71 | -1.22 | -0.36 | 37.5 | 101
[17] | 2.4 | -5.93 | -3.03 | 22.4 | 100
[19] | -14.1 | -6.62 | 2.71 | 32 | 99.4
[20] | -13.7 | -6.99 | 10.3 | 22.4 | 100
[21] | -7.18 | -27.8 | -5.86 | -10.3 | 98.2

Conditions | drug sensitivity score
DERL-7 (IL-2 2.5 ng/mL) [5] | 11.6
IMC-1 (IL-2 20 ng/mL) [14] | 6.39
KAI3 (IL-2 2.5 ng/mL) [9] | 7.36
KHYG-1 (IL-2 2.5 ng/mL) [12] | 8.48
NK-92 (IL-2 2.5 ng/mL) [13] | 11.7
NK-YS (IL-2 2.5 ng/mL) [3] | 8.29
NKL (IL-2 2.5 ng/mL) [2] | 13.3
SNK-6 (IL-2 2.5 ng/mL) [11] | 15.2
YT (IL-2 2.5 ng/mL) [10] | 9.15
[4] | 9.05
[6] | 10.1
[7] | 9.06
[8] | 4.78
[28] | 10.6

CC(C)(C)c1nc(-c2cccc(NS(=O)(=O)c3c(F)cccc3F)c2F)c(-c2ccnc(N)n2)s1 [Dabrafenib] (max concentration tested 2500 nM)
percent inhibition of viability [%]
Conditions | 0.25 nM | 2.5 nM | 25 nM | 250 nM | 2500 nM
DERL-7 (IL-2 2.5 ng/mL) [18] | 3.06 | 5 | -0.47 | -3.32 | 34.5
IMC-1 (IL-2 20 ng/mL) [27] | -5.61 | -2.47 | -3.07 | -7.52 | 8.46
KAI3 (IL-2 2.5 ng/mL) [22] | -6.1 | 1.01 | 2.43 | -4.3 | 31.2
KHYG-1 (IL-2 2.5 ng/mL) [25] | -2.85 | -0.1 | 2.78 | 71.5 | 30.8
NK-92 (IL-2 2.5 ng/mL) [26] | -8.16 | -11.7 | -14.1 | -7.91 | -1.09
NK-YS (IL-2 2.5 ng/mL) [16] | -4.15 | -0.92 | 0.04 | -2.02 | 0.94
NKL (IL-2 2.5 ng/mL) [15] | -14.1 | -19.1 | -20.9 | -29.2 | -29.9
SNK-6 (IL-2 2.5 ng/mL) [24] | -5.34 | 1.84 | -12.1 | 0.17 | 0
YT (IL-2 2.5 ng/mL) [23] | -0.07 | -0.32 | 0.19 | 3.06 | 16.2
[1] | -3.8 | -9.82 | -8.95 | -1.61 | 6.4
[17] | -7.46 | -6.18 | -4.85 | -3.22 | 3.89
[19] | -9.64 | -5.28 | -9.79 | -4.67 | -5.57
[20] | -9.2 | -8.52 | -4.83 | -5.01 | -0.02
[21] | -10.3 | -11.7 | 7.48 | 10 | 45

Conditions | drug sensitivity score
DERL-7 (IL-2 2.5 ng/mL) [5] | 1.38
IMC-1 (IL-2 20 ng/mL) [14] | 0
KAI3 (IL-2 2.5 ng/mL) [9] | 1.13
KHYG-1 (IL-2 2.5 ng/mL) [12] | 13.4
NK-92 (IL-2 2.5 ng/mL) [13] | 0.89
NK-YS (IL-2 2.5 ng/mL) [3] | 0
NKL (IL-2 2.5 ng/mL) [2] | 0.89
SNK-6 (IL-2 2.5 ng/mL) [11] | 0
YT (IL-2 2.5 ng/mL) [10] | 0.64
[4] | 0
[6] | 0.89
[7] | 0.89
[8] | 3.85
[28] | 0

Cn1c(=O)n(-c2ccc(C(C)(C)C#N)cc2)c2c3cc(-c4cnc5ccccc5c4)ccc3ncc21 [Dactolisib] (max concentration tested 1000 nM)
percent inhibition of viability [%]
Conditions | 0.1 nM | 1 nM | 10 nM | 100 nM | 1000 nM
DERL-7 (IL-2 2.5 ng/mL) [18] | 0.52 | 16 | 38.7 | 79.4 | 84.9
IMC-1 (IL-2 20 ng/mL) [27] | -8.09 | 0.4 | -15.1 | 8.63 | 56.9
KAI3 (IL-2 2.5 ng/mL) [22] | -4.23 | -6.61 | 24.4 | 68.8 | 75.8
KHYG-1 (IL-2 2.5 ng/mL) [25] | -4.3 | -5.69 | 3.3 | 74.9 | 90.8
NK-92 (IL-2 2.5 ng/mL) [26] | -5.17 | -0.09 | 27.1 | 63.9 | 70.8
NK-YS (IL-2 2.5 ng/mL) [16] | 0.2 | -0.12 | 24.7 | 63.3 | 82.3
NKL (IL-2 2.5 ng/mL) [15] | -13.1 | -9.35 | 36.5 | 69.7 | 76.1
SNK-6 (IL-2 2.5 ng/mL) [24] | -7.98 | -26.8 | 2.13 | 46.8 | 52.4
YT (IL-2 2.5 ng/mL) [23] | -3.01 | -5.11 | 15.7 | 57.6 | 80.4
[1] | -4.3 | -1.75 | 17.1 | 38.2 | 57.6
[17] | -5.56 | 16 | 21.4 | 45 | 38.5
[19] | -5.46 | 9.09 | 17.1 | 37.6 | 57.4
[20] | -3.41 | 6.19 | 15.4 | 16.5 | 43.5
[21] | -1.73 | 24 | 24.7 | 38.7 | 40.6

Conditions | drug sensitivity score
DERL-7 (IL-2 2.5 ng/mL) [5] | 19.6
IMC-1 (IL-2 20 ng/mL) [14] | 4.51
KAI3 (IL-2 2.5 ng/mL) [9] | 15.9
KHYG-1 (IL-2 2.5 ng/mL) [12] | 14.2
NK-92 (IL-2 2.5 ng/mL) [13] | 15.2
NK-YS (IL-2 2.5 ng/mL) [3] | 14.8
NKL (IL-2 2.5 ng/mL) [2] | 18.6
SNK-6 (IL-2 2.5 ng/mL) [11] | 8.78
YT (IL-2 2.5 ng/mL) [10] | 12.7
[4] | 10.6
[6] | 9.12
[7] | 4.8
[8] | 11.8
[28] | 8.96
